Here are results for 1 compound from ChEMBL document CHEMBL4334516, “Kinase Chemodiversity from the Arctic: The Breitfussins” (J Med Chem, 2019).

Calls of active or inactive are those of the source. The calls are words filed in the database; no cut-off is given here.

In series [1] the target is Serine/threonine-protein kinase pim-2 (Homo sapiens, UniProt Q9P1W9). In words: Binding affinity to wild-type human partial length PIM2 (M1 to E291 residues) expressed in bacterial expression system assessed as residual binding level at 10 uM by active-site directed competition binding assay based Kinomescan method.
A further series concerns PLC-PRF-5. In words: Cytotoxicity in human PLC/PRF/5 cells assessed as reduction in cell viability incubated for 72 hrs by SRB assay. To be noted: PLC-PRF-5, 72 h.
The target of series [2] is 3',5'-cyclic-AMP phosphodiesterase 4D (Homo sapiens) (UniProt Q08499). Put plainly: Inhibition of human recombinant phosphodiesterase type 4D2 using [3H]cAMP and cAMP incubated for 20 mins by scintillation counting method.
Series [3] is described as follows: Intrinsic clearance in mouse liver microsomes at 3 uM measured up to 50 mins by LC-MS analysis. In kind it is ADME, Microsome. The conditions noted are these: read-out: CLH.
Series [4] is described as follows: Toxicity in zebrafish embryos assessed as induction of scoliosis by measuring unaffected embryos level at 1.4 uM after 72 hrs (reference value: 100%). On the set-up: species or system Danio rerio. To be noted: in vivo.
Series [5] deals with NUAK family SNF1-like kinase 1 (Homo sapiens) (UniProt O60285). Put plainly: Inhibition of NUAK1 (unknown origin) by assessed as residual enzyme activity at 1 uM by [33P]-ATP filter binding kinase assay relative to control.
The target of series [6] is Receptor-interacting serine/threonine-protein kinase 2 (Homo sapiens, UniProt O43353). Put plainly: Binding affinity to wild-type human partial length RIPK2 (M1 to K310 residues) expressed in bacterial expression system assessed as residual binding level at 10 uM by active-site directed competition binding assay based Kinomescan method relative to control.
The next series deals with SK-BR-3. In words: Cytotoxicity in human SK-BR-3 cells assessed as reduction in cell viability incubated for 72 hrs by SRB assay. To be noted: SK-BR-3, 72 h.
Series [7] is described as follows: Toxicity in zebrafish embryos assessed as induction of tail degeneration by measuring unaffected embryos level at 14 uM after 72 hrs (reference value: 100%). Type of series: tissue-based, Danio rerio. The conditions noted are these: in vivo.
Series [8] has as its target Mitogen-activated protein kinase kinase kinase 9 (Homo sapiens, UniProt P80192). In words: Binding affinity to wild-type human partial length MLK1 (V88 to W426 residues) expressed in bacterial expression system assessed as residual binding level at 10 uM by active-site directed competition binding assay based Kinomescan method relative to control.
A short description of series [9]: Cytotoxicity in human RD-ES cells assessed as reduction in cell viability incubated for 72 hrs by SRB assay.
The target of series [10] is T1, Mitogen-activated protein kinase kinase kinase 7 (Homo sapiens) (UniProt O43318).
T1 sequence (whole entry): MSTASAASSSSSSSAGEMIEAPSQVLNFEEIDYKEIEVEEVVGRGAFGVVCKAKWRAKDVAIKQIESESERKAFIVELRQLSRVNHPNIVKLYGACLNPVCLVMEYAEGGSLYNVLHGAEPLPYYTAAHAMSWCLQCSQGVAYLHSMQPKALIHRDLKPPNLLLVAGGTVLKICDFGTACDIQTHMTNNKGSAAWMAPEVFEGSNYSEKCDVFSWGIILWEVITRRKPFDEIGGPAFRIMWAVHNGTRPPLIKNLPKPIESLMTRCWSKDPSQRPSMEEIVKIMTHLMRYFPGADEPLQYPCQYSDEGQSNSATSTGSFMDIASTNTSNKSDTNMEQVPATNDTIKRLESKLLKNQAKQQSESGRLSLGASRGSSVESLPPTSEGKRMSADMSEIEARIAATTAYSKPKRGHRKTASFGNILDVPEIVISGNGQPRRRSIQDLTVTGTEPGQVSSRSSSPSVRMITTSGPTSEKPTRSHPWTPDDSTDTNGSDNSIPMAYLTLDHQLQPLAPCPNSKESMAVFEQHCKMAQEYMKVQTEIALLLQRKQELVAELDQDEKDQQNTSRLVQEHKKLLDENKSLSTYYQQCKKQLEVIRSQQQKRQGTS
Put plainly: Inhibition of TAK1 (unknown origin) assessed as residual enzyme activity at 50 uM by [33P]-ATP filter binding kinase assay relative to control.

The nature of series [11]: Toxicity in zebrafish embryos assessed as induction of heart edema by measuring unaffected embryos level at 1.4 uM after 72 hrs (reference value: 100%). In kind it is tissue-based, Danio rerio. To be noted: in vivo.
Series [12] in a line: Toxicity in zebrafish embryos assessed as survival at 140 uM after 72 hrs (reference value: 95%). The conditions noted are these: in vivo. On the set-up: species or system Danio rerio.
Series [13] can be described thus: Stability in mouse plasma assessed as parent compound remaining level at 5 uM incubated for 1 hr by LC-MS analysis. Type of series: ADME, cell-free. The conditions noted are these: read-out: Stability.
In series [14] the target is Serine/threonine-protein kinase pim-1 (Homo sapiens, UniProt P11309). Put plainly: Binding affinity to wild-type human partial length PIM1 (A15 to K313 residues) expressed in bacterial expression system by active-site directed competition binding assay based Kinomescan method.
The next series deals with MDA-MB-468. In words: Cytotoxicity in human MDA-MB-468 cells assessed as reduction in cell viability incubated for 72 hrs by SRB assay. The conditions noted are these: MDA-MB-468, 72 h.
In series [15] the target is BMP-2-inducible protein kinase (Homo sapiens, UniProt Q9NSY1). In words: Binding affinity to wild-type human partial length BIKE (S34 to N329 residues) expressed in bacterial expression system by active-site directed competition binding assay based Kinomescan method.
Series [16] deals with T2, Mitogen-activated protein kinase kinase kinase kinase 2 (Homo sapiens) (UniProt Q12851).
T2 sequence (whole entry): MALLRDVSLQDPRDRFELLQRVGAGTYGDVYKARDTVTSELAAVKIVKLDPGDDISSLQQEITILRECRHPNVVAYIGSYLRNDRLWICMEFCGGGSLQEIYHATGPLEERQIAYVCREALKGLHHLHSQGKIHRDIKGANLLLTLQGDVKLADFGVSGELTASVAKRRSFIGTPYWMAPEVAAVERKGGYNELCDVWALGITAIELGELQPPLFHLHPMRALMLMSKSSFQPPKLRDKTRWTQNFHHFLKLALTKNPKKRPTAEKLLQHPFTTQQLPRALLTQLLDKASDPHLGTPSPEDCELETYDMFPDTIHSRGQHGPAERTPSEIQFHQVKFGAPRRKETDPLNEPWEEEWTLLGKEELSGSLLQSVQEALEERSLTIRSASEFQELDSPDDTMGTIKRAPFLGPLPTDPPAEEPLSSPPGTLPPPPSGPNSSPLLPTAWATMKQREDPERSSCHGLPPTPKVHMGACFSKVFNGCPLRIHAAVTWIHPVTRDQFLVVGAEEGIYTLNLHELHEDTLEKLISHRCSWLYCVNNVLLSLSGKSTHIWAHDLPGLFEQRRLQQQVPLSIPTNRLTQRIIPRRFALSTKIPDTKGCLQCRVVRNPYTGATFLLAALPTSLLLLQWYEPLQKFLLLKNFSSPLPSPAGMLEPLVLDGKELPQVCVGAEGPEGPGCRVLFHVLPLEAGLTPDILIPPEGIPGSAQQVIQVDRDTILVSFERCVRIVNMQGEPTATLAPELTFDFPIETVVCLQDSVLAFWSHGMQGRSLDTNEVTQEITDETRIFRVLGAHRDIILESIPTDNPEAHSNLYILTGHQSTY
In words: Binding affinity to wild-type human partial length GCK (M1 to G318 residues) expressed in mammalian expression system assessed as residual binding level at 10 uM by active-site directed competition binding assay based Kinomescan method relative to control.

As for `COc1cc2c(-c3cnc(-c4ccc[nH]4)o3)c[nH]c2cc1Br`, the Activity in series [1] was 54%; in series [4], 89%; in series [5] it was 46%; in series [6], 57%; in [7], 0%; in [8], 59%. Besides, the Activity in [10] is 7%; in [11], 100%; in series [16], 72%. The IC50 was determined as 1.5 µM with PLC-PRF-5, 1.5 µM in the series with SK-BR-3, 2.5 µM in [9] and 0.34 µM in the series with MDA-MB-468. The inhibition result in series [2] is “Active”. Moreover, in series [3], the microsomal CLint at 3 µM is 47 µL/min/mg. In addition, the survival at 72 h, 140 µM in [12] turned out to be 0%. In series [13], the remaining at 1 h, 5 µM was found to be 84%. Further, the Kd in series [14] stood at 1.2 µM; in [15], 1.1 µM.
